Test results taken from the supplement of paper PMC10307832.

Columns and labels:
Experiment in all cases: relative viability (nuclei count vs DMSO), 5 days (fraction); higher = more cells survive
[1] = compound: Cc1ccc2nc(NCCN)c3ncc(C)n3c2c1 + CCNC(=O)c1noc(-c2cc(C(C)C)c(O)cc2O)c1-c1ccc(CN2CCOCC2)cc1 [Luminespib] (partner 0.01 µM)
How it was run: (§1)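 Values are medians from duplicate plates. Each reflects relative viability, defined as the nuclei count of treated wells over that of vehicle wells. Lung cancer cell lines in 1536-well plates were pin-tool dosed one day after seeding with one drug alone or with a fixed anchor-drug dose plus five library-drug doses (not always all listed) in √10 steps, then fixed, stained and imaged at 4× after 5 days.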

Salubrinal + AZD7762 = compound: O=C(/C=C/c1ccccc1)NC(NC(=S)Nc1cccc2cccnc12)C(Cl)(Cl)Cl [Salubrinal] + NC(=O)Nc1cc(-c2cccc(F)c2)sc1C(=O)N[C@H]1CCCNC1 [AZD7762] (partner 0.2 µM)
How it was run: as §1

[2] = compound: Cc1ccc2nc(NCCN)c3ncc(C)n3c2c1 + O=C(c1cc(Cc2n[nH]c(=O)c3ccccc23)ccc1F)N1CCN(C(=O)C2CC2)CC1 [Olaparib] (partner 8 µM)
How it was run: as §1

Salubrinal + Pictilisib = compound: O=C(/C=C/c1ccccc1)NC(NC(=S)Nc1cccc2cccnc12)C(Cl)(Cl)Cl [Salubrinal] + CS(=O)(=O)N1CCN(Cc2cc3nc(-c4cccc5[nH]ncc45)nc(N4CCOCC4)c3s2)CC1 [Pictilisib] (partner 1 µM)
How it was run: as §1

| Cell Line | relative viability ([1]; first compound 0.04 µM) | relative viability ([1]; first compound 0.1265 µM) | relative viability ([1]; first compound 0.4 µM) | relative viability ([1]; first compound 1.265 µM) | relative viability ([1]; first compound 4 µM) | relative viability (Salubrinal + AZD7762; first compound 0.08 µM) | relative viability (Salubrinal + AZD7762; first compound 0.253 µM) | relative viability (Salubrinal + AZD7762; first compound 0.8 µM) | relative viability (Salubrinal + AZD7762; first compound 2.53 µM) | relative viability (Salubrinal + AZD7762; first compound 8 µM) | relative viability ([2]; first compound 0.04 µM) | relative viability ([2]; first compound 0.1265 µM) | relative viability ([2]; first compound 0.4 µM) | relative viability ([2]; first compound 1.265 µM) | relative viability ([2]; first compound 4 µM) | relative viability (Salubrinal + Pictilisib; first compound 0.08 µM) | relative viability (Salubrinal + Pictilisib; first compound 0.253 µM) | relative viability (Salubrinal + Pictilisib; first compound 0.8 µM) | relative viability (Salubrinal + Pictilisib; first compound 2.53 µM) | relative viability (Salubrinal + Pictilisib; first compound 8 µM) |
| --- | --- | --- | --- | --- | --- | --- | --- | --- | --- | --- | --- | --- | --- | --- | --- | --- | --- | --- | --- | --- |
| NCI-H2087 | 0.214 | 0.2 | 0.152 | 0.267 | 0.162 | 1.44 | 0.751 | 1.44 | 1.31 | 1.29 | 0.671 | 0.522 | 0.609 | 0.691 | 0.589 | 0.917 | 0.892 | 1.02 | 0.853 | 0.963 |
| LC-2-ad | 0.891 | 0.947 | 1.13 | 1.04 | 0.798 | 0.946 | 0.832 | 0.89 | 0.823 | 0.647 | 0.729 | 0.743 | 0.71 | 0.768 | 0.71 | 0.457 | 0.448 | 0.519 | 0.385 | 0.323 |
| NCI-H1915 | 0.721 | 0.783 | – | 0.598 | 0.636 | 0.713 | – | 0.718 | 0.71 | 0.676 | 0.286 | 0.251 | 0.242 | 0.279 | 0.255 | 0.855 | 0.942 | 0.999 | 0.946 | 0.953 |
| RERF-LC-KJ | 1.13 | 1.14 | 1.26 | 1.17 | 0.715 | 1.05 | 0.917 | 1.1 | 0.999 | 0.885 | 0.995 | 0.919 | 1.06 | 0.801 | 0.579 | 0.664 | 0.622 | 0.549 | 0.608 | 0.52 |
| LXF-289 | 0.633 | 0.816 | 0.653 | 0.706 | 0.618 | 1.25 | 1.06 | 1.17 | 1.09 | 0.931 | 1.16 | 1.02 | 1.03 | 1.13 | 1.1 | 0.871 | 0.728 | 0.829 | 0.778 | 0.731 |
| PC-14 | 0.135 | 0.114 | 0.179 | 0.151 | 0.18 | 0.485 | 0.422 | 0.418 | 0.365 | 0.367 | 0.278 | 0.324 | 0.241 | 0.261 | 0.127 | 0.792 | 0.597 | 0.668 | 0.702 | 0.626 |
| NCI-H650 | 0.891 | 0.688 | 0.583 | 0.602 | 0.698 | 1.01 | 1.19 | 1.04 | 0.953 | 0.883 | 0.374 | 0.364 | 0.39 | 0.393 | 0.399 | 0.678 | 1.1 | 0.968 | 0.916 | 0.842 |
| NCI-H1666 | 0.963 | 0.994 | 1.07 | 0.915 | 1.01 | 0.793 | 0.863 | 0.831 | 0.704 | 0.926 | 0.719 | 0.755 | 0.751 | 0.76 | 0.749 | 0.398 | 0.491 | 0.485 | 0.404 | 0.45 |
| NCI-H2085 | 0.492 | 0.463 | 0.446 | 0.442 | 0.393 | 1.14 | 0.905 | 0.944 | 0.946 | 0.932 | 0.813 | 0.752 | 0.836 | 0.803 | 0.791 | 0.464 | 0.475 | 0.512 | 0.542 | 0.489 |
| NCI-H1734 | 0.217 | 0.251 | 0.197 | 0.184 | 0.176 | 0.596 | 0.657 | 0.613 | 0.572 | 0.515 | 0.666 | 0.617 | 0.658 | 0.321 | 0.553 | 0.452 | 0.508 | 0.503 | 0.517 | 0.438 |
| NCI-H2126 | 0.998 | 0.867 | 0.917 | 0.89 | 0.832 | 1.05 | 0.936 | 1.06 | 0.992 | 0.909 | 0.924 | 0.903 | 0.943 | 0.932 | 0.888 | 0.423 | 0.479 | 0.515 | 0.483 | 0.481 |
| EMC-BAC-2 | 1.21 | 1.2 | 1.19 | 1.2 | 1.13 | 1.1 | 1.06 | 1.31 | 1.16 | 1.13 | 0.519 | 0.502 | 0.507 | 0.456 | 0.488 | 0.607 | 0.454 | 0.574 | 0.583 | 0.565 |
| NCI-H1993 | 1.01 | 0.944 | 0.902 | 0.887 | 0.859 | 0.909 | 0.744 | 0.871 | – | 0.612 | 1.12 | 0.962 | 0.86 | 0.624 | 1.06 | 0.817 | 0.827 | 0.877 | 0.773 | 0.861 |
| NCI-H647 | 0.163 | 0.187 | 0.155 | 0.136 | 0.188 | 0.616 | 0.435 | 0.487 | 0.505 | 0.397 | 0.602 | 0.492 | 0.517 | 0.642 | 0.268 | 0.298 | 0.421 | 0.421 | 0.501 | 0.427 |
| NCI-H1792 | 0.49 | 0.434 | – | 0.396 | 0.432 | 0.514 | – | 0.982 | 0.571 | 0.354 | 0.499 | 0.279 | – | 0.458 | 0.295 | 0.324 | – | 0.246 | 0.287 | 0.243 |
| ChaGo-K-1 | 0.7 | 0.565 | 0.608 | 0.517 | 0.643 | 0.978 | 0.694 | 1 | 0.886 | 0.707 | 0.411 | 0.458 | 0.412 | 0.426 | 0.402 | 0.73 | 0.625 | 1.21 | 1.01 | 0.827 |
| LOU-NH91 | 0.342 | 0.31 | 0.31 | 0.36 | 0.318 | 0.813 | 0.785 | 0.83 | 0.745 | 0.706 | 0.921 | 0.92 | 0.877 | 0.868 | 0.865 | 0.541 | 0.502 | 0.576 | 0.479 | 0.53 |
